Source: patent US20110039762A1, “TARGETED ANTIMICROBIAL MOIETIES” (C3 JIAN, INC., priority 2009, published 2011)
“Also recorded” adds a separate entry of the source.

Legend:
[1] = test system: MRSA; assay: Kill or inhibit growth/proliferation; morphology, biofilm and growth disruption (Tables 5, 6); type: cell-based, Methicillin-resistant Staphylococcus aureus; set-up: key: A: Peptide aggregates; B: Less hyphal formation; Clumps; Diffuse clumps and small polyps; F: Diffuse growth; H: Thin; I: Growth inhibition; Microcolony formation; Rippled; Small polyps; Thick; W: Halo formation on top, microlonies on bottom; further: test concentration or dose not given here
[2] = test system: microorganisms; assay: Peptides having multiple activities (targeting/binding, antimicrobial, growth or phenotype altering)
Text: In certain embodiments, peptides described herein can have multiple activities. Thus for example, a peptide can have both binding/targeting activity and antimicrobial activity. Such peptides can be used, e.g., in a chimeric construct, for any or all of these properties. Thus, for example, a peptide designated “B” in Table 8 can be used as a targeting peptide. If it is also designated G or M it can also be used for antimicrobial activity.

[3] = test system: S. epidermidis; assay: Kill or inhibit growth/proliferation; morphology, biofilm and growth disruption (Tables 5, 6); type: cell-based, Staphylococcus epidermidis; set-up: key: A: Peptide aggregates; B: Less hyphal formation; Clumps; Diffuse clumps and small polyps; F: Diffuse growth; H: Thin; I: Growth inhibition; Microcolony formation; Rippled; Small polyps; Thick; W: Halo formation on top, microlonies on bottom; further: test concentration or dose not given here
[4] = test system: M. luteus; assay: as above; type: cell-based, Micrococcus luteus; set-up: key: A: Peptide aggregates; B: Less hyphal formation; Clumps; Diffuse clumps and small polyps; F: Diffuse growth; H: Thin; I: Growth inhibition; Microcolony formation; Rippled; Small polyps; Thick; W: Halo formation on top, microlonies on bottom; further: test concentration or dose not given here
[5] = test system: microorganisms (e.g., bacteria, yeasts, fungi); assay: Targeting peptide binding to target microorganisms (Table 3); details: preferably 1x PBS
[6] = test system: C. jeikeium; assay: Kill or inhibit growth/proliferation; morphology, biofilm and growth disruption (Tables 5, 6); type: cell-based, Corynebacterium jeikeium; set-up: key: A: Peptide aggregates; B: Less hyphal formation; Clumps; Diffuse clumps and small polyps; F: Diffuse growth; H: Thin; I: Growth inhibition; Microcolony formation; Rippled; Small polyps; Thick; W: Halo formation on top, microlonies on bottom; further: test concentration or dose not given here
[7] = test system: E. faecalis; assay: as above; type: cell-based, Enterococcus faecalis; set-up: key: A: Peptide aggregates; B: Less hyphal formation; Clumps; Diffuse clumps and small polyps; F: Diffuse growth; H: Thin; I: Growth inhibition; Microcolony formation; Rippled; Small polyps; Thick; W: Halo formation on top, microlonies on bottom; further: test concentration or dose not given here
[8] = test system: S. pneumoniae; assay: as above; type: cell-based, Streptococcus pneumoniae; set-up: key: A: Peptide aggregates; B: Less hyphal formation; Clumps; Diffuse clumps and small polyps; F: Diffuse growth; H: Thin; I: Growth inhibition; Microcolony formation; Rippled; Small polyps; Thick; W: Halo formation on top, microlonies on bottom; further: test concentration or dose not given here
[9] = test system: E. coli; assay: as above; type: cell-based, Escherichia coli; set-up: key: A: Peptide aggregates; B: Less hyphal formation; Clumps; Diffuse clumps and small polyps; F: Diffuse growth; H: Thin; I: Growth inhibition; Microcolony formation; Rippled; Small polyps; Thick; W: Halo formation on top, microlonies on bottom; further: test concentration or dose not given here
[10] = microorganism the targeting peptide binds, binding in aqueous buffers varied by peptide solubility

Row | Substance | Organism, effect [1] | Activities [2] | Organism, effect [3] | Organism, effect [4] | Target(s) [5, 10] | Organism, effect [6] | Target(s) ([5]; microorganism(s) the targeting peptide binds, binding in aqueous buffers depending on peptide solubility) | Organism, effect [7] | Organism, effect [8] | Target(s) ([5]; microorganism(s) the targeting peptide binds, peptide binding conducted in aqueous buffers varied by peptide solubility) | Organism, effect [9]
1 | LIQKGLNQTFIVVIRLNNFIKKS [PF-013] | MRSA (R) | G B | S. epidermidis (C) | M. luteus (D) | M. luteus and P. mirabilis and E. coli and P. aeruginosa and MRSA and S. pneumoniae and C. jeikeium and C. jejuni | C. jeikeium (D) | – | – | – | – | –
2 | PF-001: peptide having multiple activities (chain 1 MNNWIIVAQLSVTVINEIIDIMKEKQKGGK; chain 2 MNNWIIVAQLSVTVINEIIDIMKEKQKGGK; Peptide with targeting and/or antimicrobial activity) | MRSA (R) | G B | S. epidermidis (C) | M. luteus (C) | – | C. jeikeium (D) | – | – | – | – | –
3 | PF-003: peptide having multiple activities (chain 1 MNNWIKVAQISVTVINEVIDIMKEKQNGGK; chain 2 MNNWIKVAQISVTVINEVIDIMKEKQNGGK; Peptide with targeting and/or antimicrobial activity) | MRSA (R) | G B | S. epidermidis (D) | M. luteus (A) | S. epidermidis and M. luteus and P. mirabilis and C. albicans and MRSA and C. jeikeium | C. jeikeium (A) | – | – | – | – | –
4 | PF-004: peptide having multiple activities (chain 1 ARLSKAIIIAVIVVYHLDVRGLF; chain 2 ARLSKAIIIAVIVVYHLDVRGLF; Peptide with targeting and/or antimicrobial activity) | MRSA (R) | G B | S. epidermidis (A) | M. luteus (A) | – | C. jeikeium (A) | – | – | – | – | –
5 | PF-010: peptide having multiple activities (chain 1 MDIDVNKLLQAFVYFKSFEKLRHNNS; chain 2 MDIDVNKLLQAFVYFKSFEKLRHNNS; Peptide with targeting and/or antimicrobial activity) | MRSA (R) | G B | S. epidermidis (S) | M. luteus (A) | S. epidermidis; also recorded: M. luteus; also recorded: E. coli; also recorded: C. albicans | C. jeikeium (A) | – | – | – | – | –
6 | PF-012: peptide having multiple activities (chain 1 WRGPNTEAGGKSANNIVQVGGAPT; chain 2 WRGPNTEAGGKSANNIVQVGGAPT; Peptide with targeting and/or antimicrobial activity) | MRSA (R) | G B | S. epidermidis (S) | M. luteus (C) | – | C. jeikeium (A) | – | – | – | – | –
7 | PF-022: peptide having multiple activities (chain 1 MINELKNKNSGIMNNYVVTKESKL; chain 2 MINELKNKNSGIMNNYVVTKESKL; Peptide with targeting and/or antimicrobial activity) | MRSA (R) | G B | S. epidermidis (D) | M. luteus (A) | – | C. jeikeium (A) | – | – | – | – | –
8 | PF-030: peptide having multiple activities (chain 1 MTCHQAPTTTHQSNMA; chain 2 MTCHQAPTTTHQSNMA; Peptide with targeting and/or antimicrobial activity) | MRSA (R) | G B | S. epidermidis (D) | M. luteus (C) | – | C. jeikeium (C) | – | – | – | – | –
9 | PF-042: peptide having multiple activities (chain 1 LLLSYFRYTGALLQSLF; chain 2 LLLSYFRYTGALLQSLF; Peptide with targeting and/or antimicrobial activity) | MRSA (R) | G B | S. epidermidis (D) | M. luteus (C) | – | C. jeikeium (S) | – | – | – | – | –
10 | PF-076: peptide having multiple activities (LYQYELLSKEEYLKCTLIINQRRNEQK; Peptide with targeting and/or antimicrobial activity) | MRSA (R) | G B | S. epidermidis (S) | M. luteus (A) | – | C. jeikeium (A) | – | – | – | – | –
11 | PF-139: peptide having multiple activities (ALSKPAIQARTLCRRQDPP; Peptide with targeting and/or antimicrobial activity) | – | G B | S. epidermidis (M) | M. luteus (C) | – | C. jeikeium (R) | – | – | – | – | –
12 | PF-176: peptide having multiple activities (RLTSNQFLTRITPFVFAQH; Peptide with targeting and/or antimicrobial activity) | – | G B | S. epidermidis (C) | M. luteus (C) | – | C. jeikeium (D) | S. epidermidis and M. luteus and P. mirabilis and E. coli and C. albicans and MRSA and E. faecalis and C. jeikeium | – | – | – | –
13 | PF-199 (FPAFSFGAIAGSVSVAR; Peptide with targeting and/or antimicrobial activity) | – | – | S. epidermidis (C) | M. luteus (A) | – | C. jeikeium (R) | – | – | – | – | –
14 | PF-546: peptide having multiple activities (chain 1 PIIAPTIKTQIQ; chain 2 PIIAPTIKTQIQ; Peptide with targeting and/or antimicrobial activity) | MRSA (D) | G B | S. epidermidis (D) | – | – | C. jeikeium (D) | – | E. faecalis (D) | S. pneumoniae (D) | S. epidermidis; also recorded: E. coli; also recorded: C. albicans; also recorded: S. pneumoniae; also recorded: E. faecalis; also recorded: C. jeikeium | E. coli (R)
